Tests used:
[1] = Apparent permeability in human Caco2 cells; type: ADME, cell-based; settings: Caco-2
[2] = Lipophilicity, log P of the compound; type: physicochemical; settings: octanol/water

CC(C)(C)C(=O)Nc1ncnc2c1cnn2CCN1CCCCC1
Papp [1]: 39 ×10⁻⁶ cm/s
logP [2]: 2.6
